Earlier results, collected in US20260325482A1, “TASIMELTEON FOR USE IN THE TREATMENT OF DELAYED SLEEP-WAKE PHASE DISORDER” (VANDA PHARMACEUTICALS INC., priority 2023, published 2026).

Columns and labels:
Non-24 = conditions: daily dose of 20 mg administered once, before bedtime
[1] = high-calorie/high-fat meals
MT2 receptor = MT2 receptor vs MT1 receptor
[2] = healthy volunteers, participants with primary insomnia, Non-24, and pediatric participants with SMS
SMS = conditions: daily dose of 0.7 mg/kg once daily; patients having a body mass of 28 kg or less

For `CCC(=O)NC[C@@H]1C[C@H]1c1cccc2c1CCO2` [tasimelteon], the “effectiveness in treating Non-24” value (Non-24) is listed as “effective”, the Cmax with food [1] is listed as “significantly lower” and the Tmax with food [1] is listed as “delay”. For the same compound, the “extent of absorption with food” value [1] was “not significantly affected”, the “affinity for the MT2 receptor compared with the MT1 receptor” value (MT2 receptor) was “greater affinity for the MT2 receptor than the MT1 receptor” and the safety and tolerability [2] was “safe and well-tolerated”. The linearity of pharmacokinetics (doses ranging from 3 mg to 300 mg) was “linear”, the absolute bioavailability (oral) was 38% and the “effectiveness in treating SMS” value (SMS) was “effective”.
